# Experimental data from ChEMBL document CHEMBL3885881, “DrugMatrix”.
# Species: Rattus norvegicus
# Assay: DrugMatrix - Regimen: Daily Repeat
# Format: toxicity, organism-based, Sprague-Dawley
# Design: regimen Daily Repeat, gender Male, age 6-8 weeks
# Settings: in vivo, po, route oral GAVAGE, vehicle .5 % CMC; for ABSOLUTE BASOPHIL / ABSOLUTE EOSINOPHIL / ABSOLUTE LYMPHOCYTE / ABSOLUTE MONOCYTE / ABSOLUTE SEGMENTED NEUTROPHIL / BASOPHIL / EOSINOPHIL / ERYTHROCYTE COUNT / HEMATOCRIT / HEMOGLOBIN / LEUKOCYTE COUNT / LYMPHOCYTE / MEAN CORPUSCULAR HEMOGLOBIN / MEAN CORPUSCULAR HEMOGLOBIN CONCENTRATION / MEAN CORPUSCULAR VOLUME / MONOCYTE / NEUTROPHIL / NUCLEATED RED BLOOD CELLS / PLATELET COUNT: tissue Blood; for ALANINE AMINOTRANSFERASE / ALBUMIN / ALKALINE PHOSPHATASE / ASPARTATE AMINOTRANSFERASE / BLOOD UREA NITROGEN / CARBON DIOXIDE / CHLORIDE / CHOLESTEROL / CREATINE PHOSPHOKINASE / CREATININE / GLUCOSE / LACTATE DEHYDROGENASE / LIPASE / PHOSPHORUS / POTASSIUM / SODIUM / TOTAL BILIRUBIN / TOTAL PROTEIN / URIC ACID: tissue Plasma
# [1] = 0 mg/kg, 72 h, dose level Control, time 3 day
# [2] = 0 mg/kg, 120 h, dose level Control, time 5 day
# [3] = 100 mg/kg, 72 h, dose level Low, time 3 day
smiles,measurement,setting,value
NC(=O)CN1CCCC1=O,ABSOLUTE BASOPHIL,[1],0 CELLS/uL
same,ABSOLUTE EOSINOPHIL,[1],0 CELLS/uL
same,ABSOLUTE LYMPHOCYTE,[1],12191.17 CELLS/uL
same,ABSOLUTE MONOCYTE,[1],183.17 CELLS/uL
same,ABSOLUTE SEGMENTED NEUTROPHIL,[1],1192.33 CELLS/uL
same,BASOPHIL,[1],0%
same,EOSINOPHIL,[1],0%
same,ERYTHROCYTE COUNT,[1],5.51 x10E6/uL
same,HEMATOCRIT,[1],35.45%
same,HEMOGLOBIN,[1],13.82 G/DL
same,LEUKOCYTE COUNT,[1],13.57 x10E3/uL
same,LYMPHOCYTE,[1],89.83%
same,MEAN CORPUSCULAR HEMOGLOBIN,[1],25.1 pg
same,MEAN CORPUSCULAR HEMOGLOBIN CONCENTRATION,[1],38.98 G/DL
same,MEAN CORPUSCULAR VOLUME,[1],64.42 fL
same,MONOCYTE,[1],1.33%
same,NEUTROPHIL,[1],8.83%
same,NUCLEATED RED BLOOD CELLS,[1],0 /100WBC
same,PLATELET COUNT,[1],1118.17 x10E3/uL
same,ALANINE AMINOTRANSFERASE,[1],55 u/L
same,ALBUMIN,[1],4.15 G/DL
same,ALKALINE PHOSPHATASE,[1],449.5 u/L
same,ASPARTATE AMINOTRANSFERASE,[1],112.83 u/L
same,BLOOD UREA NITROGEN,[1],17.33 mg/dL
same,CARBON DIOXIDE,[1],29.5 mmol/L
same,CHLORIDE,[1],101 MEQ/L
same,CHOLESTEROL,[1],70 mg/dL
same,CREATINE PHOSPHOKINASE,[1],1325.83 u/L
same,CREATININE,[1],0.18 mg/dL
same,GLUCOSE,[1],171.5 mg/dL
same,LACTATE DEHYDROGENASE,[1],386 u/L
same,LIPASE,[1],10 u/L
same,PHOSPHORUS,[1],11.57 mg/dL
same,POTASSIUM,[1],6.21 MEQ/L
same,SODIUM,[1],141.65 MEQ/L
same,TOTAL BILIRUBIN,[1],0.15 mg/dL
same,TOTAL PROTEIN,[1],5.75 G/DL
same,URIC ACID,[1],1.28 mg/dL
same,ABSOLUTE BASOPHIL,[2],0 CELLS/uL
same,ABSOLUTE EOSINOPHIL,[2],138.17 CELLS/uL
same,ABSOLUTE LYMPHOCYTE,[2],13283.17 CELLS/uL
same,ABSOLUTE MONOCYTE,[2],303.83 CELLS/uL
same,ABSOLUTE SEGMENTED NEUTROPHIL,[2],1308.17 CELLS/uL
same,BASOPHIL,[2],0%
same,EOSINOPHIL,[2],1%
same,ERYTHROCYTE COUNT,[2],5.32 x10E6/uL
same,HEMATOCRIT,[2],33.8%
same,HEMOGLOBIN,[2],13.63 G/DL
same,LEUKOCYTE COUNT,[2],15.03 x10E3/uL
same,LYMPHOCYTE,[2],88.33%
same,MEAN CORPUSCULAR HEMOGLOBIN,[2],25.68 pg
same,MEAN CORPUSCULAR HEMOGLOBIN CONCENTRATION,[2],40.35 G/DL
same,MEAN CORPUSCULAR VOLUME,[2],63.67 fL
same,MONOCYTE,[2],1.83%
same,NEUTROPHIL,[2],8.83%
same,NUCLEATED RED BLOOD CELLS,[2],0 /100WBC
same,PLATELET COUNT,[2],1097.5 x10E3/uL
same,ALANINE AMINOTRANSFERASE,[2],54.5 u/L
same,ALBUMIN,[2],4.27 G/DL
same,ALKALINE PHOSPHATASE,[2],337 u/L
same,ASPARTATE AMINOTRANSFERASE,[2],94.67 u/L
same,BLOOD UREA NITROGEN,[2],17 mg/dL
same,CARBON DIOXIDE,[2],28.33 mmol/L
same,CHLORIDE,[2],101.5 MEQ/L
same,CHOLESTEROL,[2],71.33 mg/dL
same,CREATINE PHOSPHOKINASE,[2],628.17 u/L
same,CREATININE,[2],0.19 mg/dL
same,GLUCOSE,[2],177.83 mg/dL
same,LACTATE DEHYDROGENASE,[2],500.5 u/L
same,LIPASE,[2],9.5 u/L
same,PHOSPHORUS,[2],12.3 mg/dL
same,POTASSIUM,[2],5.63 MEQ/L
same,SODIUM,[2],143.03 MEQ/L
same,TOTAL BILIRUBIN,[2],0.2 mg/dL
same,TOTAL PROTEIN,[2],6.02 G/DL
same,URIC ACID,[2],1.5 mg/dL
same,ABSOLUTE BASOPHIL,[3],0 CELLS/uL
same,ABSOLUTE EOSINOPHIL,[3],0 CELLS/uL
same,ABSOLUTE LYMPHOCYTE,[3],10885.67 CELLS/uL
same,ABSOLUTE MONOCYTE,[3],0 CELLS/uL
same,ABSOLUTE SEGMENTED NEUTROPHIL,[3],981 CELLS/uL
same,BASOPHIL,[3],0%
same,EOSINOPHIL,[3],0%
same,ERYTHROCYTE COUNT,[3],5.15 x10E6/uL
same,HEMATOCRIT,[3],32.9%
same,HEMOGLOBIN,[3],13.47 G/DL
same,LEUKOCYTE COUNT,[3],11.87 x10E3/uL
same,LYMPHOCYTE,[3],92%
same,MEAN CORPUSCULAR HEMOGLOBIN,[3],26.17 pg
same,MEAN CORPUSCULAR HEMOGLOBIN CONCENTRATION,[3],40.97 G/DL
same,MEAN CORPUSCULAR VOLUME,[3],63.87 fL
same,MONOCYTE,[3],0%
same,NEUTROPHIL,[3],8%
same,NUCLEATED RED BLOOD CELLS,[3],0 /100WBC
same,PLATELET COUNT,[3],1222.67 x10E3/uL
same,ALANINE AMINOTRANSFERASE,[3],51.33 u/L
same,ALBUMIN,[3],4.07 G/DL
same,ALKALINE PHOSPHATASE,[3],403 u/L
same,ASPARTATE AMINOTRANSFERASE,[3],87.67 u/L
same,BLOOD UREA NITROGEN,[3],15 mg/dL
same,CARBON DIOXIDE,[3],25 mmol/L
same,CHLORIDE,[3],102.33 MEQ/L
same,CHOLESTEROL,[3],61 mg/dL
same,CREATINE PHOSPHOKINASE,[3],556.33 u/L
same,CREATININE,[3],0.2 mg/dL
same,GLUCOSE,[3],204.67 mg/dL
same,LACTATE DEHYDROGENASE,[3],170.67 u/L
same,LIPASE,[3],10 u/L
same,PHOSPHORUS,[3],13.13 mg/dL
same,POTASSIUM,[3],5.4 MEQ/L
same,SODIUM,[3],143.3 MEQ/L
same,TOTAL BILIRUBIN,[3],0.1 mg/dL
same,TOTAL PROTEIN,[3],5.5 G/DL
same,URIC ACID,[3],1.8 mg/dL
